Data on four compounds can be found in patent EP1889615A2, “Formulations for oral administration with a health promoting effect on the osteoarticular and muscleskeleton apparatus” (ROTTAPHARM S.P.A., priority 2006, dated 2008).

Values after ≈ are worked out from the molar mass of the structure shown.

Assay [1] deals with tibial joint cartilage explants. Description: Rabbit cartilage explants: protection against IL-1β-induced cartilage degradation (GAG release). The following applies: CHX 2.5 µg/ml.
Method: The explants (2 x 2 mm) have been transferred to plates with wells and equilibrated for 48 hours at 37°C with high glucose DMEM plus 10% FCS and 50 µg/ml gentamycin. Explants have then been stimulated for 48 hours with 1 ng/ml IL-1β in aphenolic DMEM, 1 g/l glucose, 50 µg/ml gentamycin and 1% BSA. IL-1β elicits strong activation of the enzymes which depolymerise the proteoglycan aggregates of the cartilage matrix, resulting in its degradation, with the release of the breakdown products, mainly represented by the various glycosaminoglycans (GAG) making up the proteoglycan aggregates, into the culture liquid. […] In order to assess the effects of the test products on IL-1β-induced cartilage degradation, they have been added to the cartilage explants 20 minutes prior to stimulation with IL-1β. Cartilage degradation has been assessed by expressing the GAG released into the culture liquid as a percentage of the total GAG measured following complete digestion of the cartilage explants using papain.
In assay [2] the test system is zymosan-induced rat paw oedema. Description: Rat: anti-inflammatory activity on zymosan-induced paw oedema. The note with it: oral, 10 mg/kg (Man, ASS as mangostin; ASS 10 = Man 10 + CGS 133). The format is in vivo. On the procedure:
The anti-inflammatory activities of the test products have been assessed according to Di Rosa et al. [1971] on rat paw oedema induced by a subplantar injection of 4 mg di zymosan in 0.1 ml of isotonic saline. Paw volume has been measured pletismographically at 0, 1, 2, 4, 6 and 24 hours following the injection of zymosan, and expressed in ml of difference, with respect to the baseline volume. The test products, suspended in 5 ml/kg of 5% methylcellulose, have been administered with a gastric probe 30 minutes prior to the injection of zymosan. Celecoxib, a known COX-2 inhibitor, widely used clinically, and administered orally at a dose of 10 mg/kg, has been used as a reference standard. In order to express the treatment effects numerically, the areas under the curves of paw volume increase from 0 to 24 hours have been measured, thus giving the measurement of paw oedema in mlx24 hours.

Assay [3] has as its system zymosan-induced rat paw hyperalgesia. Description: Rat: analgesic activity (Randall and Selitto) on zymosan-induced paw hyperalgesia. The format is in vivo. The following applies: oral, 10 mg/kg (Man, ASS as mangostin; ASS 10 = Man 10 + CGS 133). On the procedure:
The analgesic activities of the test products have been evaluated using the technique of Randall and Selitto [1957] on hyperalgesia induced in rat paw by a subplantar injection of 4 mg di zymosan in 0.1 ml of isotonic saline. The mechanical nociceptive threshold has been determined using an analgesimeter (Ugo Basile, Varese, Italy) at 0, 1, 2, 4, 6 and 24 hours following the injection of zymosan. The analgesimeter measures the weight (in grams) applied to the paw which causes the reflex retraction of the paw itself. The nociceptive threshold has been expressed as the difference (in grams) in nociceptive threshold at time 0. The test products have been administered orally 30 minutes prior to the injection of zymosan. Celecoxib, a known COX-2 inhibitor, widely used clinically as an analgesic-anti-inflammatory, and administered orally at a dose of 10 mg/kg, has been used as a reference standard. In order to express the treatment effects numerically, the areas under the curves of the analgesimetric weight increase on the inflamed paw have been measured from 0 to 24 hours, thus giving the measurement in g x 24 hours of the area under the analgesimetric curve.

The test system of assay [4] is Mycobacterium tuberculosis. The note with it: cited from earlier work.
The subject of assay [5] is methicillin and penicillin-resistant strains of Staphylococcus aureus. The note with it: cited from earlier work.

In the case of `C[C@@H]1C[C@@H]([C@H](O)CC2CC(=O)NC(=O)C2)C(=O)[C@@H](C)C1` [CHX, Cycloheximide], the “%GAG released” value in assay [1] is given as 12%. Moreover, in assay [1] (GAG release, protection positive), the “%Diff. vs baseline” value is reported as 82.6%.

Consider `Cc1ccc(-c2cc(C(F)(F)F)nn2-c2ccc(S(N)(=O)=O)cc2)cc1` [CLX, Celecoxib], for which the results for the “% Diff. vs. control” value in assay [2] (oedema) and in assay [3] (analgesia) were -30% and -46%, respectively. In addition, the Diff. vs. control in assay [2] (oedema) was -4.7 mlx24 hours; in assay [3] (difference of the Analgesia Δgx24h values), -497. Moreover, the Oedema in assay [2] (area under curve 0-24 h) is given as 11.8 Δmlx24h. Moreover, in assay [3] (area under analgesimetric curve 0-24 h), the Analgesia was 574 Δgx24h.

For the compound `COc1c(O)cc2oc3cc(O)c(CC=C(C)C)c(O)c3c(=O)c2c1CC=C(C)C` [α-mangostin], the MIC (in general, the lowest concentration that inhibits growth of the organism) in assay [4] is 6.25 µg/mL (≈ 15.2 µM); in assay [5], 1.6 µg/mL (≈ 3.9 µM).

Take `COc1cc2oc3cc(O)c(OC)c(CC=C(C)C)c3c(=O)c2c(O)c1CC=C(C)C` [β-mangostin]: the MIC was 6.25 µg/mL (≈ 14.7 µM) in assay [4] and 1.6 µg/mL (≈ 3.77 µM) in assay [5].
